US20100261767A1, “OXADIAZOLE DERIVATIVES FOR USE AS S1P1 AGONISTS IN THE TREATMENT OF AUTOIMMUNE AND INFLAMMATORY DISORDERS” (priority 2007, published 2010)
Structures can show the parent of a compound that is named as a salt.

Key:
human S1P3 receptor = molecular target: T1, human S1P3 receptor (Homo sapiens, UniProt Q99500); assay: S1P3 GTPγS Assay; assay type: biochemical; conditions: S1P3 RBL-2H3 membranes, agonist
T1 construct: expressed in transfected cells; membranes
Description: (§1) For membrane preparations all steps were performed at 4° C. Rat hepatoma cells stably expressing the human S1P1 receptor or Rat Basophilic Leukaemia cells (RBL) stably expressing human S1P3 receptor were grown to 80% confluency before being harvested into 10 ml Phospho-Buffered Saline (PBS) and centrifuged at 1200 rpm for 5 minutes. After removal of the supernatant, the pellet was re-suspended and cells were homogenised within a glass Waring blender for 2 bursts of 15 secs in 200 mls of buffer (50 mM HEPES, 1 mM leupeptin, 25 μg/ml bacitracin, 1 mM EDTA, 1 mM PMSF, 2 μM pepstatin A). The blender was plunged into ice for 5 mins after the first burst and 10-40 mins after the final burst to allow foam to dissipate. The material was then spun at 500 g for 20 mins and the supernatant spun for 36 mins at 48,000 g. The pellet was resuspended in the same buffer as above but without PMSF and pepstatin A. The material was then forced through a 0.6 mm needle, made up to the required volume, (usually ×4 the volume of the original cell pellet), aliquoted and stored frozen at −80° C.
S1P3 membranes from rat basophilic leukaemia cells (RBL-2H3) (1.5 μg/well) were adhered to WGA-coated SPA beads (0.125 mg/well) in assay buffer (HEPES 20 mM, MgCl2 3 mM, NaCl 100 mM and pH adjusted to 7.4 using KOH 5M), GDP 10 μM FAC and saponin 90 μg/ml FAC was also added).
After 30 minutes pre-coupling on ice the bead and membrane suspension was dispensed into a white Greiner polypropylene LV384-well plate (5 μl/well), containing 0.1 μl of the compound. 5 μl/well [^35S]-GTPγS (0.5 nM final radioligand conc) made up in assay buffer was then added to agonist plates. The final assay cocktail (10.1 μl) was centrifuged at 1000 rpm for 5 minutes then read immediately on a Viewlux reader. […]
(§2) After 30 minutes precoupling on ice, the bead and membrane suspension was dispensed into white Greiner polypropylene LV 384-well plates (5 μl/well), containing 0.1 μl of compound. […] The final assay cocktail (10.1 μl) was then sealed, spun on a centrifuge, then read immediately on a Viewlux instrument.

human S1P1 receptor = molecular target: T2, human S1P1 receptor (Homo sapiens, UniProt P21453); assay: S1P1 GTPγS Assay; assay type: biochemical; conditions: human S1P1 rat hepatoma membranes, agonist
T2 construct: expressed in transfected cells; membranes
T2 sequence (P21453 whole entry): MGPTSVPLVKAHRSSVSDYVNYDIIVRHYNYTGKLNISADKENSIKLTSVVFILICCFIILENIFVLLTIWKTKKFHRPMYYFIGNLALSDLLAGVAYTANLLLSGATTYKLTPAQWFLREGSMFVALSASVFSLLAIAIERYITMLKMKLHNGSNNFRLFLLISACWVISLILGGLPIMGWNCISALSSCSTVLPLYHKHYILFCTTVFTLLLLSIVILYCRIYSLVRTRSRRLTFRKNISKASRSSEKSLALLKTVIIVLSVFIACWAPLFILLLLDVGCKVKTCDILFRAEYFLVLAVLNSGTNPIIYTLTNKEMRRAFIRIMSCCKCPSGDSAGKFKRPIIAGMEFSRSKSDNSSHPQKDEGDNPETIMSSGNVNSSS
Description: Membrane Preparation for S1P1 GTPγS Assay
as §1, with “The material was then spun at 500 g for 20 mins and the supernatant spun for 36 mins at 48,000 g. The pellet was resuspended in the same buffer as above but without PMSF and pepstatin A. The material was then forced through a 0.6 mm needle, made up to the required volume, (usually ×4 the volume of the original cell pellet), aliquoted and stored frozen at −80° C.” left out
After 30 minutes pre-coupling on ice the bead and membrane suspension was dispensed into a white Greiner polypropylene LV384-well plate (5 μl/well), containing 0.1 μl of the compound. […] The final assay cocktail (10.1 μl) was then centrifuged at 1000 rpm for 5 minutes then read immediately on a Viewlux reader. […]
as §2

T1 sequence (Q99500 whole entry): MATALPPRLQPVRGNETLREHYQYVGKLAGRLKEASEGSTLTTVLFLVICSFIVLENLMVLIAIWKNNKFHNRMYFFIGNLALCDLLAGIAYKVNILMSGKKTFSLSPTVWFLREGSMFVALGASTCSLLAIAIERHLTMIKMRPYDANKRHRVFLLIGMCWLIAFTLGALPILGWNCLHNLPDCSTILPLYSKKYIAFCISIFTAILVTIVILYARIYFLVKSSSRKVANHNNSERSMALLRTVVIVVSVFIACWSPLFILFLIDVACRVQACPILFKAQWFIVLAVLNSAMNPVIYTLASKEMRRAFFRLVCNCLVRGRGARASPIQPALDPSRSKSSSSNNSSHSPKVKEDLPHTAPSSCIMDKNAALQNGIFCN

Row | EC50 (human S1P3 receptor) [µM] | EC50 (human S1P1 receptor) [µM] | Structure (SMILES)
1 | > 10 | < 0.01 | CC(C)Oc1ccc(-c2nc(-c3cccc4c3CNC4)no2)cc1C#N [Example 1, 5-[3-(2,3-Dihydro-1H-isoindol-4-yl)-1,2,4-oxadiazol-5-yl]-2-[(1-methylethyl)oxy]benzonitrile hydrochloride]
2 | > 10 | < 0.01 | CC(C)Oc1ccc(-c2nc(-c3cccc4c3CNC4)no2)cc1Cl [Example 2, 4-(5-{3-Chloro-4-[(1-methylethyl)oxy]phenyl}-1,2,4-oxadiazol-3-yl)-2,3-dihydro-1H-isoindole]
3 | > 10 |  | CC(C)Oc1ccc(-c2nc(-c3cccc4c3CN(CCCC(=O)O)C4)no2)cc1C#N [Example 5, 4-[4-(5-{3-cyano-4-[(1-methylethyl)oxy]phenyl}-1,2,4-oxadiazol-3-yl)-1,3-dihydro-2H-isoindol-2-yl]butanoic acid]
